This note sets out measurements from patent US20220340597A1, “HEXAHYDRO-1H-PYRAZINO[1,2-A]PYRAZINE COMPOUNDS FOR THE TREATMENT OF AUTOIMMUNE DISEASE” (Hoffmann-La Roche Inc., priority 2019, published 2022).

The target of assay [1] is T1, human TLR9 (Homo sapiens, UniProt Q9NR96).
T1 construct: host or cells: HEK293 (HEK-Blue hTLR9)
T1 sequence (Q9NR96 26-1032): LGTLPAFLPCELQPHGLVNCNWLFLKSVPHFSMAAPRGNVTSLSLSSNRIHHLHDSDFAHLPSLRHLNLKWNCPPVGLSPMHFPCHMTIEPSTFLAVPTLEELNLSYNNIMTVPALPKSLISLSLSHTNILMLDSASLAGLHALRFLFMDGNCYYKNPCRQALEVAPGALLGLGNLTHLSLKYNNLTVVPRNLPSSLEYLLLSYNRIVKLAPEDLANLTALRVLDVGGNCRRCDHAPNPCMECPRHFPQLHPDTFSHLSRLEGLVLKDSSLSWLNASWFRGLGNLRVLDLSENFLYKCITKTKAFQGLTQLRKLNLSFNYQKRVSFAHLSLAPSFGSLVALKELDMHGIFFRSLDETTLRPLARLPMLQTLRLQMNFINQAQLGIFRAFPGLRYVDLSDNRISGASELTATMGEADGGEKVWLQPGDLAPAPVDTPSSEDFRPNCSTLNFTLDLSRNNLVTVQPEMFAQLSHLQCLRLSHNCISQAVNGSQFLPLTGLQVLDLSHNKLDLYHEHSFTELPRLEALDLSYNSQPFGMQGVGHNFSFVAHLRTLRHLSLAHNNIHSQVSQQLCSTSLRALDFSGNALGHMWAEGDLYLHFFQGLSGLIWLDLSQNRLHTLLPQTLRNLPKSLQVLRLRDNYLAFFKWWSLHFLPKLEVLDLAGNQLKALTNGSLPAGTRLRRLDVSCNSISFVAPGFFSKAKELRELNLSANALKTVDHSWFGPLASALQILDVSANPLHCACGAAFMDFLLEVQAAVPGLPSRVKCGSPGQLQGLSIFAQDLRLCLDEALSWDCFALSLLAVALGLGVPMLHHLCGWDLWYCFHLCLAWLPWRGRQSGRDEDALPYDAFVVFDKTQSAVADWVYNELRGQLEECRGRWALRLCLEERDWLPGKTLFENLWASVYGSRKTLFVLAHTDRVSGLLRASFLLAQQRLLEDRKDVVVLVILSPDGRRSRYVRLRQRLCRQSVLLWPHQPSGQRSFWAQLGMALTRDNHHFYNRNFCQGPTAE
The assay can be described thus: HEK293-Blue-hTLR-9 cells assay. To be noted: HEK293-Blue-hTLR9 cells, ODN2006 stimulation, 20 hrs, SEAP reporter; read-out: HEK/hTLR9 IC50. The format is cell-based.

Assay [2] deals with T2, human TLR8 (Homo sapiens, UniProt Q9NR97).
T2 sequence (Q9NR97 27-1041): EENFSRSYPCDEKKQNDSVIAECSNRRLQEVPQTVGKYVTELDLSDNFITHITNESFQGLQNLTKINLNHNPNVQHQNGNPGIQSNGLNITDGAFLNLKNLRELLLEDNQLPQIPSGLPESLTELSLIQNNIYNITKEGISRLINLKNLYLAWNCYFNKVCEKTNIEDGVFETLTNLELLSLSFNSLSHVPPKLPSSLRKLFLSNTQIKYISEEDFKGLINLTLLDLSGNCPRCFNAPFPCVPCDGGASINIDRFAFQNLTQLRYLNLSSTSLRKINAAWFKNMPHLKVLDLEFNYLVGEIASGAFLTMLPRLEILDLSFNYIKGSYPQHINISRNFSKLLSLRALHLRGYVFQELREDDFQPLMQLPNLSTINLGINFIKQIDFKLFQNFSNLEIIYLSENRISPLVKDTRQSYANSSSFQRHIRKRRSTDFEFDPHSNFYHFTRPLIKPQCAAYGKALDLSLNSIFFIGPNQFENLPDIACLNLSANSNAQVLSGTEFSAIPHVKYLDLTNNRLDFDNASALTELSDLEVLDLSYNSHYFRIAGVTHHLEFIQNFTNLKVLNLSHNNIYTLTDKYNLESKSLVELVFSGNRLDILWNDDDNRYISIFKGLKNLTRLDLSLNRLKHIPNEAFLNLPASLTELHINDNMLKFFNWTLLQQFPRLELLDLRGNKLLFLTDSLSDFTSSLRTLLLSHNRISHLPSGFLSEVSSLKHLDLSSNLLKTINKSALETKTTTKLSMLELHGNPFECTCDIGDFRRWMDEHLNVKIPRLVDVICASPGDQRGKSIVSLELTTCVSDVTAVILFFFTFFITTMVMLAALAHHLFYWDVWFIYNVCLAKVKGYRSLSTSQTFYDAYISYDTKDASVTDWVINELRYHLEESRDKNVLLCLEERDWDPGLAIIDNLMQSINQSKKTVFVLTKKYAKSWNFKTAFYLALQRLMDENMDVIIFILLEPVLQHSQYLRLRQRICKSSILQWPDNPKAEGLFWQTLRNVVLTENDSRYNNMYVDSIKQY
In words: HEK293-Blue-hTLR-8 cells assay.

pIC50: −log10 of the molar value.

Turning to `[2H]c1ccc2c(N3C[C@@H]4CN(c5ccc6c(n5)CCNC6)CCN4[C@@H](C)C3)ccc(C#N)c2n1` [Example 121, 5-[(4S,9aR)-4-methyl-8-(5,6,7,8-tetrahydro-1,6-naphthyridin-2-yl)-3,4,6,7,9,9a-hexahydro-1H-pyrazino[1,2-a]pyrazin-2-yl]-2-deuterio-quinoline-8-carbonitrile], the pIC50 in assay [1] was 7.07; in assay [2], 9.00.

In the case of `C[C@@H]1CN(c2ccc(C#N)c3ncccc23)C[C@@H]2CN(CCc3ccc(N4CCNCC4)cc3)CCN21` [Example 7, 5-[(4R,9aS)-4-methyl-8-[2-(4-piperazin-1-ylphenyl)ethyl]-3,4,6,7,9,9a-hexahydro-1H-pyrazino[1,2-a]pyrazin-2-yl]quinoline-8-carbonitrile], the figures for the pIC50 in assay [1] and in assay [2] were more than 7.49 and 7.52, respectively.

`C[C@@H]1CN(c2ccc(C#N)c3ncccc23)C[C@@H]2CN(c3nccc(N4CC(N)C4)n3)CCN21` [Example 39, 5-[(4R,9aR)-8-[4-(3-aminoazetidin-1-yl)pyrimidin-2-yl]-4-methyl-3,4,6,7,9,9a-hexahydro-1H-pyrazino[1,2-a]pyrazin-2-yl]quinoline-8-carbonitrile]: the pIC50 in assay [1] is 7.02; in assay [2] it was 7.77.

Turning to `Cc1cnc(N2CCN3[C@@H](C2)CN(c2ccc(C#N)c4ncccc24)C[C@H]3C)nc1N1CCNCC1` [Example 43, 5-[(4R,9aR)-4-methyl-8-(5-methyl-4-piperazin-1-yl-pyrimidin-2-yl)-3,4,6,7,9,9a-hexahydro-1H-pyrazino[1,2-a]pyrazin-2-yl]quinoline-8-carbonitrile], the pIC50 in assay [1] was 7.11; in assay [2], 7.89.

Regarding `C[C@@H]1CN(c2ccc(C#N)c3ncccc23)C[C@@H]2CN(CCc3cccc(N4CCN[C@@H](C)C4)n3)CCN21` [Example 21, 5-[(4R,9aS)-4-methyl-8-[2-[6-[(3S)-3-methylpiperazin-1-yl]-2-pyridyl]ethyl]-3,4,6,7,9,9a-hexahydro-1H-pyrazino[1,2-a]pyrazin-2-yl]quinoline-8-carbonitrile], the pIC50 was 7.25 in assay [1] and 7.28 in assay [2].

Take `[2H]c1ccc2c(N3C[C@@H]4CN(c5ncc(N6C[C@H]7NCCO[C@@H]7C6)cc5C)CCN4[C@@H](C)C3)ccc(C#N)c2n1` [Example 114, 5-[(4S,9aR)-8-[5-[(4aR,7aR)-3,4,4a,5,7,7a-hexahydro-2H-pyrrolo[3,4-b][1,4]oxazin-6-yl]-3-methyl-2-pyridyl]-4-methyl-3,4,6,7,9,9a-hexahydro-1H-pyrazino[1,2-a]pyrazin-2-yl]-2-deuterio-quinoline-8-carbonitrile]: the pIC50 was 6.96 in assay [1] and 8.00 in assay [2].

Turning to `Cc1nc(N2CCNCC2)ccc1CN1CCN2[C@@H](C1)CN(c1ccc(C#N)c3ncccc13)C[C@H]2C` [Example 60, 5-[(4R,9aS)-4-methyl-8-[(2-methyl-6-piperazin-1-yl-3-pyridyl)methyl]-3,4,6,7,9,9a-hexahydro-1H-pyrazino[1,2-a]pyrazin-2-yl]quinoline-8-carbonitrile], the pIC50 in assay [1] is 7.28; in assay [2], 7.85.

For the compound `CO[C@H]1CN(c2ccc(CCN3CCN4[C@@H](C3)CN(c3ccc(C#N)c5ncccc35)C[C@H]4C)cn2)C[C@H]1N` [Example 24, 5-[(4R,9aS)-8-[2-[6-[(3R,4S)-3-amino-4-methoxy-pyrrolidin-1-yl]-3-pyridyl]ethyl]-4-methyl-3,4,6,7,9,9a-hexahydro-1H-pyrazino[1,2-a]pyrazin-2-yl]quinoline-8-carbonitrile], the pIC50 in assay [1] is 7.35; in assay [2], 7.82.

On to `CO[C@@H]1CN(c2ccc(CCN3CCN4[C@@H](C3)CN(c3ccc(C#N)n5ncc(F)c35)C[C@H]4C)cc2)C[C@H]1N` [Example 66, 4-[(4R,9aS)-8-[2-[4-[(3R,4R)-3-amino-4-methoxy-pyrrolidin-1-yl]phenyl]ethyl]-4-methyl-3,4,6,7,9,9a-hexahydro-1H-pyrazino[1,2-a]pyrazin-2-yl]-3-fluoro-pyrazolo[1,5-a]pyridine-7-carbonitrile], for which the pIC50 in assay [1] was 6.94; in assay [2], 7.41.

With `C[C@@H]1CN(c2ccc(C#N)c3ncccc23)C[C@@H]2CN(Cc3cccc4c3CCNC4)CCN21` [Example 70, 5-[(4R,9aS)-4-methyl-8-(1,2,3,4-tetrahydroisoquinolin-5-ylmethyl)-3,4,6,7,9,9a-hexahydro-1H-pyrazino[1,2-a]pyrazin-2-yl]quinoline-8-carbonitrile], the pIC50 in assay [1] was 7.01; in assay [2], 7.92.

As to `C[C@@H]1CN(c2ccc(C#N)c3ncccc23)C[C@@H]2CN(Cc3cccc4c3CNC4)CCN21` [Example 72, 5-[(4R,9aS)-8-(isoindolin-4-ylmethyl)-4-methyl-3,4,6,7,9,9a-hexahydro-1H-pyrazino[1,2-a]pyrazin-2-yl]quinoline-8-carbonitrile], the pIC50 in assay [1] is 7.05; in assay [2] it was 7.82.

As to `Cc1nc(N2CC(C)(N)C2)ccc1CN1CCN2[C@@H](C1)CN(c1ccc(C#N)c3ncccc13)C[C@H]2C` [Example 76, 5-[(4R,9aS)-8-[[6-(3-amino-3-methyl-azetidin-1-yl)-2-methyl-3-pyridyl]methyl]-4-methyl-3,4,6,7,9,9a-hexahydro-1H-pyrazino[1,2-a]pyrazin-2-yl]quinoline-8-carbonitrile], the pIC50 in assay [1] is 7.30; in assay [2] it was 8.30.

With `[2H]c1ccc2c(N3C[C@@H]4CN(c5ncc(N6C[C@@H]7C[C@H]6CN7)cc5C)CCN4[C@@H](C)C3)ccc(C#N)c2n1` [Example 111, 5-[(4S,9aR)-8-[5-[(1S,4S)-2,5-diazabicyclo[2.2.1]heptan-2-yl]-3-methyl-2-pyridyl]-4-methyl-3,4,6,7,9,9a-hexahydro-1H-pyrazino[1,2-a]pyrazin-2-yl]-2-deuterio-quinoline-8-carbonitrile], the values for the pIC50 in assay [1] and in assay [2] were 6.92 and 8.30, respectively.

`C[C@@H]1CN(c2ccc(C#N)n3ncc(F)c23)C[C@@H]2CN(CCc3ccc(N4C[C@@H](N)[C@@H](F)C4)nc3)CCN21` [Example 75, 4-[(4R,9aS)-8-[2-[6-[(3R,4S)-3-amino-4-fluoro-pyrrolidin-1-yl]-3-pyridyl]ethyl]-4-methyl-3,4,6,7,9,9a-hexahydro-1H-pyrazino[1,2-a]pyrazin-2-yl]-3-fluoro-pyrazolo[1,5-a]pyridine-7-carbonitrile]: the pIC50 in assay [1] is 7.19; in assay [2] it was 7.08.

With `C[C@@H]1CN(c2ccc(C#N)c3ncccc23)C[C@@H]2CN(c3ccnc(N4CCOC[C@@H](N)C4)c3)CCN21` [Example 53, 5-[(4R,9aS)-8-[2-[(6S)-6-amino-1,4-oxazepan-4-yl]-4-pyridyl]-4-methyl-3,4,6,7,9,9a-hexahydro-1H-pyrazino[1,2-a]pyrazin-2-yl]quinoline-8-carbonitrile], the pIC50 in assay [1] was more than 7.49; in assay [2], 7.70.
